Data on four molecules can be found in PubChem BioAssay AID1919000 (Molecular Pharmacology Branch, DTP, NCI, 2023).

In the assay the test system is 653999-131-R-J2-PDC complex spheroids, growth % test/control. The experiment in a line: Anticancer human tumor 653999-131-R-J2-PDC patient-derived lung adenocarcinoma cell line growth inhibition [AhR]. As to conditions: for viability, T/C: stronger effect = lower value. An excerpt: Multicellular complex tumor spheroid response to aryl hydrocarbon receptor antagonists in combination with a variety of drugs and investigational agents in selected tumor cell lines
The current study was undertaken to assess response to aryl hydrocarbon receptor antagonists in combination with standard-of-care drugs and investigational agents in solid tumor complex spheroid models. Complex spheroids include a stromal component modeled by human endothelial cells (HUVEC) and fibroblasts modeled by human mesenchymal stem cells (MSCs). The concentration ranges selected for each drug and investigational agent were based upon clinically achievable concentrations if the clinical Cmax of the agent was known.
Compounds. The drugs and investigational agents: BAY 2416964 (NSC825713), GNF351 (NSC835774), CH-223191 (NSC835775), CPI-455 (NSC825282), aza-TdCyd (NSC777586), decitabine (NSC127716), belinostat (NSC758774), entinostat (NSC756642), pevonedistat (NSC761192), tazemetostat (NSC777109), talazoparib (NSC765396), olaparib (NSC753686), selinexor (NSC780203), nedisertib (M3814, NSC802822), bortezomib (NSC756655), venetoclax (NSC766270), doxorubicin (NSC123127), elimusertib (BAY189344, NSC800525), ceralasertib (AZD6738, NSC777638), TAK-243 (NSC785004), alisertib (NSC759677), etoposide (NSC141540), topotecan (NSC609699), eribulin (NSC707389), gemcitabine (NSC613327), carboplatin (NSC241240), cisplatin (NSC119875), and SN-38 (NSC673596) were obtained from the National Cancer Institute (NCI) Developmental Therapeutics Program Chemical Repository (32). The FDA-approved anticancer drug set is available from the Developmental Therapeutics Program at https://dtp.cancer.gov/organization/dscb/obtaining/available plates.htm. […] The stock solutions were prepared in dimethyl sulfoxide (DMSO, Sigma-Aldrich, St. Louis, MO, cat. D2650), except for the platinum compounds which were prepared in saline (Quality Biological, Gaithersburg, MD, cat. 114-055-101), at 800-fold the tested concentration and stored at -70 degrees C prior to their use. All drugs and investigational agents were tested over a range starting from a high concentration at or near the clinical Cmax and decreasing in half-log increments. If the clinical Cmax for an agent had not been determined, the highest concentration tested was 10 microM (Table 1).
Cell Culture. All cells were maintained in an incubator at 37 degrees C and 5% CO2 with 95% humidity. The PDC lines were cultured according to standard operating procedures established by the NCI PDMR (https://pdmr.cancer.gov). Briefly, all PDCs were thawed and cultured in Matrigel-coated flasks prepared with a working solution of 1X Ham's F-12 nutrient mix, without supplementation (Invitrogen, Waltham, MA, cat. 11765054), 100 U/mL penicillin-streptomycin (Invitrogen, cat. 15140122), and 2.5% Matrigel (Corning Inc., Corning, NY, cat. 354248) for the first three passages. All PDCs were cultured in complete DMEM/F-12 media containing advanced DMEM/F-12 (Invitrogen, cat. 12634028), 4.9% defined fetal bovine serum, heat inactivated (HyClone Laboratories Inc., Logan, UT, cat. SH30070.03HI), 389 ng/mL hydrocortisone (Sigma-Aldrich, cat. H4001), 9.7 ng/mL human EGF recombinant protein (Invitrogen, cat. PHG0313), 23.4 microg/mL adenine (Sigma-Aldrich, cat. A2786), 97.3 U/mL penicillin-streptomycin (Invitrogen, cat. 15140122), 1.9 mM L-glutamine (Invitrogen, cat. 25030081), and 9.7 microM Y-27632 dihydrochloride (Tocris Bioscience, Bristol, United Kingdom, cat. 1254). The PDCs were cultured in complete DMEM/F12 media without 10 microM Y-27632 dihydrochloride for at least two passages prior to the screen. The established cell lines NCI-H1341 and […] were cultured in DMEM/F-12, HEPES (Invitrogen, cat. 11330032), 5% defined fetal bovine serum (HyClone Laboratories Inc., cat. SH30070.03), ITS premix universal culture supplement [insulin (5 microg/mL), transferrin (5 microg/mL), and selenious acid (5 ng/mL)] […]

Where [1] appears, read: curve of first compound, second compound 0.1 µM.
Where [2] appears, read: curve of first compound, second compound 0.316 µM.
[3] abbreviates: curve of first compound, second compound 1 µM.
[4] abbreviates: curve of first compound, second compound 3.16 µM.
[5] abbreviates: curve of first compound, second compound 10 µM.
[6] abbreviates: second compound 0.1 µM, first compound 0.000949 µM.
[7] abbreviates: second compound 0.1 µM, first compound 0.003 µM.
Where [8] appears, read: second compound 0.1 µM, first compound 0.00949 µM.
Where [9] appears, read: second compound 0.1 µM, first compound 0.03 µM.
Setting [10] is: second compound 0.1 µM, first compound 0.0949 µM.
[11] abbreviates: second compound 0.1 µM, first compound 0.3 µM.
Setting [12] is: second compound 0.316 µM, first compound 0.000949 µM.
[13] abbreviates: second compound 0.316 µM, first compound 0.003 µM.
Where [14] appears, read: second compound 0.316 µM, first compound 0.00949 µM.
The mark [15] stands for this setting: second compound 0.316 µM, first compound 0.03 µM.
[16] abbreviates: second compound 0.316 µM, first compound 0.0949 µM.
[17] abbreviates: second compound 0.316 µM, first compound 0.3 µM.
The mark [18] stands for this setting: second compound 1 µM, first compound 0.000949 µM.
The mark [19] stands for this setting: second compound 1 µM, first compound 0.003 µM.
[20] abbreviates: second compound 1 µM, first compound 0.00949 µM.
Setting [21] is: second compound 1 µM, first compound 0.03 µM.
Setting [22] is: second compound 1 µM, first compound 0.0949 µM.
[23] abbreviates: second compound 1 µM, first compound 0.3 µM.
The mark [24] stands for this setting: second compound 3.16 µM, first compound 0.000949 µM.
[25] abbreviates: second compound 3.16 µM, first compound 0.003 µM.
Setting [26] is: second compound 3.16 µM, first compound 0.00949 µM.
Setting [27] is: second compound 3.16 µM, first compound 0.03 µM.
[28] abbreviates: second compound 3.16 µM, first compound 0.0949 µM.
[29] abbreviates: second compound 3.16 µM, first compound 0.3 µM.
Where [30] appears, read: second compound 10 µM, first compound 0.000949 µM.
Setting [31] is: second compound 10 µM, first compound 0.003 µM.
The mark [32] stands for this setting: second compound 10 µM, first compound 0.00949 µM.
Setting [33] is: second compound 10 µM, first compound 0.03 µM.
Where [34] appears, read: second compound 10 µM, first compound 0.0949 µM.
The mark [35] stands for this setting: second compound 10 µM, first compound 0.3 µM.

Values joined by “and” are separate entries in the source; they are usually repeats but may differ in a detail not shown here. Identical values can stand only once.
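Note: spheroids exposed to agents for seven days.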

Regarding `CC(C)CC(NC(=O)C(Cc1ccccc1)NC(=O)c1cnccn1)B(O)O` (centres undefined) + Cc1ccccc1N=Nc1ccc(NC(=O)c2ccnn2C)c(C)c1, the IC50 (usually the concentration at which inhibition is half-maximal) is, setting by setting: under setting [1], 0.0204 µM; under setting [2], 0.0202 µM; under setting [3], 0.0196 µM; under setting [4], 0.0207 µM; under setting [5], 0.0221 µM. Moreover, the viability, T/C (usually the ratio of treated to control) runs as follows: under setting [6], 103%; under setting [7], 117%; under setting [8], 82.6%; under setting [9], 33.1%; under setting [10], 12.7%; under setting [11], 4.4%. Moreover, the viability, T/C runs as follows: under setting [12], 89.7%; under setting [13], 116%; under setting [14], 91%; under setting [15], 28.3%; under setting [16], 10.5%; under setting [17], 6.14%. For the same molecule, the viability, T/C was 100% under setting [18]; 108% under setting [19]; 87.6% under setting [20]; 27.4% under setting [21]; 14.9% under setting [22]; 6.46% under setting [23]. For the same molecule, the viability, T/C under setting [24] is 97.6%; the viability, T/C under setting [25] was 96.8%; the viability, T/C under setting [26] is 86.7%; the viability, T/C under setting [27] is 31.8%; the viability, T/C under setting [28] is 20.8%; the viability, T/C under setting [29] is 7.43%. The viability, T/C is, setting by setting: under setting [30], 89.1%; under setting [31], 98.1%; under setting [32], 80%; under setting [33], 37.8%; under setting [34], 25.2%; under setting [35], 11.4%.

For the molecule `CC(C)CC(NC(=O)C(Cc1ccccc1)NC(=O)c1cnccn1)B(O)O` (centres undefined) + CC(CO)NC(=O)c1cc(-c2ccc(Cl)cc2)nn(-c2cnn(C)c2)c1=O, the concentration for half-maximal inhibition (IC50) is, setting by setting: under setting [1], 0.0141 µM; under setting [2], 0.0134 µM; under setting [3], 0.0154 µM; under setting [4], 0.0157 µM; under setting [5], 0.0164 µM. Further, the viability, T/C is 108% under setting [6]; 116% under setting [7]; 65.1% under setting [8]; 20.3% under setting [9]; 9.49% under setting [10]; 3.53% under setting [11]. The viability, T/C by setting is: under setting [12], 111%; under setting [13], 121%; under setting [14], 64.6%; under setting [15], 17.8%; under setting [16], 11.5%; under setting [17], 2.06%. In addition, the viability, T/C is 101% under setting [18]; 122% under setting [19]; 73.4% under setting [20]; 19.5% under setting [21]; 14.9% under setting [22]; 4.87% under setting [23]. Further, the viability, T/C was 121% under setting [24]; 120% under setting [25]; 73.3% under setting [26]; 20.1% under setting [27]; 12.1% under setting [28]; 4.74% under setting [29]. The viability, T/C reads like this: under setting [30], 99.5%; under setting [31], 117%; under setting [32], 74.5%; under setting [33], 22.1%; under setting [34], 12.8%; under setting [35], 2.47%.

In the case of `CC1COCCN1c1cc(C2(S(C)(=N)=O)CC2)nc(-c2ccnc3[nH]ccc23)n1` (centres undefined), the viability, T/C is 109% and 102% and 99.7% (compound 0.0316 µM); 110% and 106% and 102% (compound 0.1 µM); 104% and 101% and 107% (compound 0.316 µM); 101% and 98.8% and 94.3% (compound 1 µM); 87.2% and 70.5% and 81.3% (compound 3.16 µM); 50.6% and 45.6% and 57.8% (compound 10 µM). Also, the IC50 (curve of compound) was > 10 µM and 8.16 µM.

Regarding `Cn1ncnc1C1c2n[nH]c(=O)c3cc(F)cc(c23)NC1c1ccc(F)cc1` (centres undefined), the viability, T/C is, setting by setting: (compound 0.000316 µM) 94.2% and 105% and 97.9%; (compound 0.001 µM) 106% and 102% and 107%; (compound 0.00316 µM) 102% and 103% and 116%; (compound 0.01 µM) 91.6% and 96% and 101%; (compound 0.0316 µM) 94.2% and 95.2% and 105%; (compound 0.1 µM) 95.5% and 91.8% and 103%. Further, the IC50 (curve of compound) is above 0.1 µM.
